Measurements from article PMC12207250, “Investigations of amination reactions on an antimalarial 1,2,4-triazolo[4,3-a]pyrazine scaffold” (Beilstein Journal of Organic Chemistry, 2025).
Like-named read-outs stand apart in the source and are kept apart here. Values belong to the compound of their own block, whether it stands above or below them.

Assays:
[1] = tested on: P. falciparum 3D7 (chloroquine-sensitive strain); assay: In vitro antiplasmodial image-based assay; type: cell-based, Plasmodium falciparum; details: for inhibition at 80 µM / IC50: Plasmodium falciparum; for inhibition at 80 µM: 3D7, accurate IC50 not determinable, read-out: growth inhibition against Pf 3D7 at the assay top dose; for Selectivity index (fold difference) IC50(HEK293)/IC50(Pf 3D7): HEK293 versus Pf 3D7; for IC50: read-out: Pf 3D7 IC50 ± SD
Procedure: Plasmodium falciparum 3D7 were cultured in RPMI1640 (Life Technologies, Camarillo, CA, USA) supplemented with 2.5 mg/mL Albumax II, 5% AB human serum, 25 mM HEPES, and 0.37 mM hypoxanthine. Human red blood cells (RBC) (O+) were supplied by Australian Red Cross LifeBlood in accordance with agreement 23-05QLD-23. Use of human RBC for antiplasmodial experimentation was in accordance with Griffith University Human Ethics Exemption Approval #03/08/11019. Ring-stage parasites were treated with compounds following two rounds of sorbitol synchronisation, as previously described. Puromycin, chloroquine, pyrimethamine, and dihydroartemisinin were used as reference compounds. Following incubation of assay plates for 72 h at 37 °C, and 5% CO2 and 5% O2, parasites were stained with 2-(4-amidinophenyl)-1H-indole-6-carboxamidine (DAPI) and imaged using an Opera PhenixPlus™ High Content Screening System (PerkinElmer, Waltham, MA, USA). Images were analysed using the Harmony software (PerkinElmer, Waltham, MA, USA). […]
In vitro antiplasmodial image-based assay
Plasmodium falciparum 3D7 were cultured in RPMI1640 (Life Technologies, Camarillo, CA, USA) supplemented with 2.5 mg/mL Albumax II, 5% AB human serum, 25 mM HEPES, and 0.37mM hypoxanthine. Human red blood cells (RBC) (O+) were supplied by Australian Red Cross LifeBlood in accordance with agreement 23-05QLD-23. Use of human RBC for anti-plasmodial experimentation was in accordance with Griffith University Human Ethics Exemption Approval #03/08/11019. Ring stage parasites were treated with compounds following two rounds of sorbitol synchronisation, as previously described. Puromycin, chloroquine, pyrimethamine, and dihydroartemisinin were used as reference compounds. Following incubation of assay plates for 72 h at 37 °C, and 5% CO2 and 5% O2, parasites were stained with 2-(4-amidinophenyl)-1H-indole-6-carboxamidine (DAPI) and imaged using an Opera PhenixPlusTM High Content Screening System (PerkinElmer, Waltham, MA, USA).
Images were analysed using Harmony software (PerkinElmer, Waltham, MA, USA).

HEK293 cells = assay: In vitro cytotoxicity assay (resazurin); type: cell-based, human; details: for cytotoxicity against HEK293 cells at the top concentration tested (in words): 80 µM
Procedure: (§1) Human embryonic kidney (HEK293) cells were maintained in DMEM (Life Technologies, Camarillo, CA, USA) containing 10% FBS (Hyclone™ ThermoFisher, Melbourne, Australia). Cytotoxicity testing was undertaken as previously described. In brief, 5 μL of test compound was added to the well of black/clear tissue culture-treated, 384-well plates containing 2000 adherent HEK293 cells/well and incubated 72 h at 37 °C in 5% CO2. […], 5 µL of 600 µM resazurin, diluted in growth media, was added. Plates were further incubated for 6 h and measured for fluorescence at 530 nm excitation and 595 nm emission. The % inhibition was calculated using 0.4% DMSO (no inhibition) and 50 μM puromycin (100% inhibition) data. Puromycin was included as a reference compound to assess assay validity. IC50 values were obtained by plotting % inhibition against log dose using GraphPad Prism v.6 (San Diego, CA, USA) nonlinear regression with a variable slope plot.
In vitro cytotoxicity assay
Human embryonic kidney (HEK293) cells were maintained in DMEM (Life
Technologies, Camarillo, CA, USA) containing 10% FBS (Hyclone™ ThermoFisher, Melbourne, Australia). Cytotoxicity testing was undertaken as previously described.
as §1, with “In brief,” for “Human embryonic kidney (HEK293) cells were maintained in DMEM (Life Technologies, Camarillo, CA, USA) containing 10% FBS (Hyclone™ ThermoFisher, Melbourne, Australia). Cytotoxicity testing was undertaken as previously described. In brief,”, “and incubated for 72 h” for “and incubated 72 h”, “slope plot. […]” for “slope plot.”

[2] = Homo sapiens, HEK293, at top concentration 80 µM, 72 h, mean of duplicate, n = 1, read-out: HEK293 % inhibition ± SD
[3] = P. falciparum 3D7, ring-stage, 72 h, mean of duplicate, n = 1
[4] = reference compounds, P. falciparum 3D7, 72 h

SMILES: Clc1ccc(-c2nnc3c(NCc4ccccc4)nccn23)cc1 [Compound 4]
inhibition at 80 µM [1]: < 100%

SMILES: Fc1ccc(CCNc2nccn3c(-c4ccc(Cl)cc4)nnc23)cc1 [Compound 3]
cytotoxicity against HEK293 cells at the top concentration tested (in words) (HEK293 cells): some inhibition
inhibition at 80 µM (HEK293 cells; [2]): 74 ± 7%
inhibition at 80 µM [1]: < 100%

IC50 [1, 3]: 23.3 ± 1.7 µM
SMILES: CN(C)CCNc1nccn2c(-c3ccc(Cl)cc3)nnc12 [Compound 10, N^1-(3-(4-Chlorophenyl)-[1,2,4]triazolo[4,3-a]pyrazin-8-yl)-N^2,N^2-dimethylethane-1,2-diamine]
Selectivity index (fold difference) IC50(HEK293)/IC50(Pf 3D7) [1]: >3

SMILES: CC(C)CCNc1nccn2c(-c3ccc(Cl)cc3)nnc12 [Compound 7, 3-(4-Chlorophenyl)-N-isopentyl-[1,2,4]triazolo[4,3-a]pyrazin-8-amine]
inhibition at 80 µM [1]: < 100%

IC50 [1, 3]: 12.6 ± 1.9 µM
SMILES: Clc1ccc(-c2nnc3cncc(Cl)n23)cc1 [Compound 1, 5-chloro-3-(4-chlorophenyl)-[1,2,4]triazolo[4,3-a]pyrazine]
cytotoxicity against HEK293 cells at the top concentration tested (in words) (HEK293 cells): no cytotoxicity
Selectivity index (fold difference) IC50(HEK293)/IC50(Pf 3D7) [1]: >6

IC50 [1, 4]: 0.000475 ± 9e-05 µM
SMILES: C[C@H]1[C@@H](O)O[C@@H]2O[C@@]3(C)CC[C@H]4[C@H](C)CC[C@@H]1[C@@]24OO3 [DHA, dihydroartemisinin, reference compound]

SMILES: Clc1ccc(-c2nnc3c(NC4CCCCC4)nccn23)cc1 [Compound 8]
inhibition at 80 µM [1]: < 100%

IC50 [1, 3]: 11.3 ± 0.57 µM
SMILES: CCN(CC)CCCNc1nccn2c(-c3ccc(Cl)cc3)nnc12 [Compound 13]
inhibition at up to 80 µM (HEK293 cells; [2]): 48 ± 5%

IC50 [1, 3]: 9.9 ± 1.27 µM
SMILES: Clc1ccc(-c2nnc3c(NCCN4CCNCC4)nccn23)cc1 [Compound 14]
inhibition at 80 µM (HEK293 cells; [2]): 84 ± 4%

SMILES: Clc1ccc(-c2nnc3c(NCCc4ccccc4)nccn23)cc1 [Compound 2, 3-(4-Chlorophenyl)-N-phenethyl-[1,2,4]triazolo[4,3-a]pyrazin-8-amine]
cytotoxicity against HEK293 cells at the top concentration tested (in words) (HEK293 cells): no cytotoxicity
inhibition at 80 µM [1]: < 100%

IC50 [1, 3]: 22 ± 2.4 µM
SMILES: CCN(CC)CCNc1nccn2c(-c3ccc(Cl)cc3)nnc12 [Compound 11]
Selectivity index (fold difference) IC50(HEK293)/IC50(Pf 3D7) [1]: >4

IC50 [1, 4]: 0.0112 ± 0.00212 µM
SMILES: CCc1nc(N)nc(N)c1-c1ccc(Cl)cc1 [PMA, pyrimethamine, reference compound]

SMILES: COCCNc1nccn2c(-c3ccc(Cl)cc3)nnc12 [Compound 9]
inhibition at 80 µM [1]: < 100%

SMILES: CC(C)(C)OC(=O)NCCCCNc1nccn2c(-c3ccc(Cl)cc3)nnc12 [Compound 15, tert-Butyl(4-((3-(4-chlorophenyl)-[1,2,4]triazolo[4,3-a]pyrazin-8 yl)amino)butyl)carbamate]
inhibition at 80 µM (HEK293 cells; [2]): 57 ± 4%
inhibition at 80 µM [1]: < 100%

SMILES: Fc1ccc(CNc2nccn3c(-c4ccc(Cl)cc4)nnc23)cc1 [Compound 5]
inhibition at 80 µM [1]: < 100%

IC50 ([1]; 3D7, 72 h): 0.0212 ± 0.00566 µM
SMILES: CCN(CC)CCCC(C)Nc1ccnc2cc(Cl)ccc12 (centres unmarked) [CQ, chloroquine, reference compound]

IC50 [1, 4]: 0.0338 ± 0.00566 µM
SMILES: COc1ccc(C[C@H](N)C(=O)N[C@H]2[C@@H](O)[C@H](n3cnc4c(N(C)C)ncnc43)O[C@@H]2CO)cc1 [PMY, puromycin, reference compound]
IC50 (HEK293 cells; Homo sapiens, HEK293, reference compounds, 72 h, read-out: HEK293 IC50 ± SD): 0.43 ± 0.0283 µM
Selectivity index (fold difference) IC50(HEK293)/IC50(Pf 3D7) [1]: 13

SMILES: CCCNc1nccn2c(-c3ccc(Cl)cc3)nnc12 [Compound 6]
inhibition at 80 µM [1]: < 100%

IC50 [1, 3]: 22 ± 1.56 µM
SMILES: CN(C)CCCNc1nccn2c(-c3ccc(Cl)cc3)nnc12 [Compound 12]
Selectivity index (fold difference) IC50(HEK293)/IC50(Pf 3D7) [1]: >4
